One block for each compound: values may come before it. Active and inactive are the calls of the source. The rule behind the calls is not given here.
How the values were obtained:
[1] = Inhibition of BCR-ABL G250E mutant (unknown origin) expressed in mouse BaF3 cells assessed as inhibition of cell growth incubated for 72 hrs by […] CellTiter96 viability analysis; settings: for IC50: BaF3, 72 h
[2] = cells; settings: Mus musculus, BaF3, 3 h
[3] = Inhibition of BCR-ABL M244V mutant (unknown origin) expressed in mouse BaF3 cells assessed as inhibition of cell growth incubated for 72 hrs by […] CellTiter96 viability analysis; settings: for IC50: BaF3, 72 h
[4] = Inhibition of BCR-ABL F359V mutant (unknown origin) expressed in mouse BaF3 cells assessed as inhibition of cell growth incubated for 72 hrs by […] CellTiter96 viability analysis; settings: for IC50: BaF3, 72 h
[5] = Inhibition of BCR-ABL F311L mutant (unknown origin) expressed in mouse BaF3 cells assessed as inhibition of cell growth incubated for 72 hrs by […] CellTiter96 viability analysis; settings: for IC50: BaF3, 72 h
[6] = Inhibition of BCR-ABL E255V mutant (unknown origin) expressed in mouse BaF3 cells assessed as inhibition of cell growth incubated for 72 hrs by […] CellTiter96 viability analysis; settings: for IC50: BaF3, 72 h
[7] = cells; settings: Mus musculus, BaF3, 72 h
[8] = cells; settings: Mus musculus, BaF3, 3 h; remark: listed apart in the source
[9] = Inhibition of BCR-ABL E255K mutant (unknown origin) expressed in mouse BaF3 cells assessed as inhibition of cell growth incubated for 72 hrs by […] CellTiter96 viability analysis; settings: for IC50: BaF3, 72 h
[10] = cells; settings: Mus musculus, BaF3, 3 h; remark: listed apart in the source
[11] = Inhibition of BCR-ABL Y253H mutant (unknown origin) expressed in mouse BaF3 cells assessed as inhibition of cell growth incubated for 72 hrs by […] CellTiter96 viability analysis; settings: for IC50: BaF3, 72 h
[12] = cells; settings: Mus musculus, BaF3, 3 h; remark: listed apart in the source
[13] = Inhibition of BCR-ABL L387M mutant (unknown origin) expressed in mouse BaF3 cells assessed as inhibition of cell growth incubated for 72 hrs by […] CellTiter96 viability analysis; settings: for IC50: BaF3, 72 h
[14] = Inhibition of BCR-ABL Y253F mutant (unknown origin) expressed in mouse BaF3 cells assessed as inhibition of cell growth incubated for 72 hrs by […] CellTiter96 viability analysis; settings: for IC50: BaF3, 72 h
[15] = cells; settings: Mus musculus, BaF3, 3 h; remark: listed apart in the source
[16] = cells; settings: Mus musculus, BaF3, 3 h; remark: listed apart in the source
[17] = Inhibition of BCR-ABL H396P mutant (unknown origin) expressed in mouse BaF3 cells assessed as inhibition of cell growth incubated for 72 hrs by […] CellTiter96 viability analysis; settings: for IC50: BaF3, 72 h
[18] = Inhibition of BCR-ABL Q252H mutant (unknown origin) expressed in mouse BaF3 cells assessed as inhibition of cell growth incubated for 72 hrs by […] CellTiter96 viability analysis; settings: for IC50: BaF3, 72 h
[19] = Inhibition of BCR-ABL M351T mutant (unknown origin) expressed in mouse BaF3 cells assessed as inhibition of cell growth incubated for 72 hrs by […] CellTiter96 viability analysis; settings: for IC50: BaF3, 72 h
[20] = cells; settings: Mus musculus, BaF3, 3 h; remark: listed apart in the source
[21] = cells; settings: Mus musculus, BaF3, 3 h; remark: listed apart in the source
[22] = Inhibition of BCR-ABL V379l mutant (unknown origin) expressed in mouse BaF3 cells assessed as inhibition of cell growth incubated for 72 hrs by […] CellTiter96 viability analysis; settings: for IC50: BaF3, 72 h
[23] = cells; settings: Mus musculus, BaF3, 3 h; remark: listed apart in the source
[24] = cells; settings: Mus musculus, BaF3, 3 h; remark: listed apart in the source
[25] = Inhibition of BCR-ABL H396R mutant (unknown origin) expressed in mouse BaF3 cells assessed as inhibition of cell growth incubated for 72 hrs by […] CellTiter96 viability analysis; settings: for IC50: BaF3, 72 h
[26] = Inhibition of BCR-ABL F317L mutant (unknown origin) expressed in mouse BaF3 cells assessed as inhibition of cell growth incubated for 72 hrs by […] CellTiter96 viability analysis; settings: for IC50: BaF3, 72 h
[27] = Cytotoxicity against mouse BaF3 cells assessed as reduction in cell proliferation incubated for 72 hrs by […] CellTiter96 viability analysis; assay type: toxicity
[28] = cells; settings: Mus musculus, BaF3, 3 h; remark: listed apart in the source
[29] = cells; settings: Mus musculus, BaF3, 3 h; remark: listed apart in the source
[30] = Inhibition of BCR-ABL H396P mutant (unknown origin) expressed in mouse BaF3 cells assessed as inhibition of tyrosine phosphorylation incubated for 3 hrs by immunoblotting analysis; assay type: cell-based; settings: BaF3, 3 h
[31] = Inhibition of BCR-ABL L387M mutant (unknown origin) expressed in mouse BaF3 cells assessed as inhibition of tyrosine phosphorylation incubated for 3 hrs by immunoblotting analysis; assay type: cell-based; settings: BaF3, 3 h
[32] = Inhibition of BCR-ABL F311L mutant (unknown origin) expressed in mouse BaF3 cells assessed as inhibition of tyrosine phosphorylation incubated for 3 hrs by immunoblotting analysis; assay type: cell-based; settings: BaF3, 3 h
[33] = system: BaF3; experiment: Induction of apoptosis in mouse BaF3 cells expressing Bcr-Abl T315I mutant at 300 to 1500 nM incubated for 72 hrs by Annexin V-phycoerythrin and 7-amino-actinomycin D staining based PCA instrument analysis relative to control; assay type: functional, cell-based; settings: dose 300-1500 nM
[34] = Inhibition of BCR-ABL V379l mutant (unknown origin) expressed in mouse BaF3 cells assessed as inhibition of tyrosine phosphorylation incubated for 3 hrs by immunoblotting analysis; assay type: cell-based; settings: BaF3, 3 h
[35] = Inhibition of BCR-ABL phosphorylation in mouse BaF3 cells incubated for 3 hrs by immunoblotting analysis; assay type: functional, cell-based
[36] = BaF3, time 72 hrs, condition chronic myelogenous leukemia

IC50 [2]: < 10 nM
IC50 [7]: > 200 nM
IC50 [8]: > 1000 nM
IC50 [10]: < 10 nM
IC50 [12]: 10 nM
IC50 [15]: < 10 nM
IC50 [16]: 10 nM
IC50 [20]: < 10 nM
IC50 [21]: < 10 nM
IC50 [23]: < 10 nM
IC50 [24]: 10 nM
IC50 [28]: < 10 nM
IC50 [29]: < 10 nM
Compound: Cc1nc(Nc2ncc(C(=O)Nc3c(C)cccc3Cl)s2)cc(N2CCN(CCO)CC2)n1 [DASATINIB ANHYDROUS]
IC50 [1]: 1.8 nM
IC90 [1, 36]: 3 nM
IC50 [3]: 1.3 nM
IC90 [3, 36]: 1.8 nM
IC50 [4]: 2.2 nM
IC90 [4, 36]: 4.8 nM
IC50 [5]: 1.3 nM
IC90 [5, 36]: 2.8 nM
IC50 [6]: 11 nM
IC90 [6, 36]: 27 nM
IC50 [9]: 5.6 nM
IC90 [9, 36]: 12.8 nM
IC50 [11]: 1.3 nM
IC90 [11, 36]: 3 nM
IC50 [13]: 2 nM
IC90 [13, 36]: 4 nM
IC50 [14]: 1.4 nM
IC90 [14, 36]: 3 nM
IC50 [17]: 0.6 nM
IC90 [17, 36]: 1.2 nM
IC50 [18]: 3.4 nM
IC90 [18, 36]: 11.2 nM
IC50 [19]: 1.1 nM
IC90 [19, 36]: 3 nM
IC50 [22]: 0.8 nM
IC90 [22, 36]: 1.6 nM
IC50 [25]: 1.3 nM
IC90 [25, 36]: 2.7 nM
IC50 [26]: 7.4 nM
IC90 [26, 36]: 15 nM
IC50 at 72 h [27]: > 200 nM

IC50 [30]: 2700 nM
IC50 [2]: 4200 nM
IC50 [31]: 2700 nM
IC50 [32]: 600 nM
IC50 [7]: > 6400 nM
IC50 [8]: > 5000 nM
IC50 [10]: 500 nM
IC50 [12]: 3100 nM
IC50 [15]: 400 nM
IC50 [16]: 1000 nM
IC50 [20]: > 5000 nM
IC50 [21]: 1000 nM
IC50 [23]: 1500 nM
IC50 [24]: 5000 nM
IC50 [34]: 800 nM
IC50 [35]: Not Active
IC50 [28]: > 5000 nM
IC50 [29]: 500 nM
Compound: Cc1ccc(NC(=O)c2ccc(CN3CCN(C)CC3)cc2)cc1Nc1nccc(-c2cccnc2)n1 [IMATINIB]
IC50 [1]: 1350 nM
IC50 [3]: 2000 nM
IC50 [4]: 1820 nM
IC50 [5]: 480 nM
IC50 [6]: > 6400 nM
IC50 [9]: 5200 nM
IC50 [11]: > 6400 nM
Activity [33]: inactive
IC50 [13]: 1000 nM
IC50 [14]: 3480 nM
IC50 [17]: 850 nM
IC50 [18]: 1320 nM
IC50 [19]: 880 nM
IC50 [22]: 1630 nM
IC50 [25]: 1750 nM
IC50 [26]: 1050 nM
IC50 at 72 h [27]: > 6400 nM

Source: ChEMBL document CHEMBL5715937, “In vitro activity of Bcr-Abl inhibitors AMN107 and BMS-354825 against clinically relevant imatinib-resistant Abl kinase domain mutants” (Cancer Res, 2005)
